Among the data in patent US20100120763A1, “IMIDAZO[5,1-C][1,2,4]BENZOTRIAZINE DERIVATIVES AS INHIBITORS OF PHOSPHODIESTERASES” (priority 2008, published 2010) are IC50 values, retold here.

One assay concerns the target T1, PDE2A (Homo sapiens, UniProt O00408).
T1 construct: made in house; host or cells: SF21 insect cells (baculovirus)
In words: Inhibition of recombinant PDE2A (expressed in baculovirus/SF21-cells), [3H]-cAMP SPA. The format is biochemical. Here is the method:
Inhibition of Recombinant PDE2A (Expressed in Baculovirus/SF21-Cells)
PDE2A (NM002599) was cloned and the gene was inserted in the baculovirus and the enzyme-protein expressed in SF21-cells. The enzyme was isolated from these cells by harvesting the cells by an centrifugation at 200 g to collect the cells. The cells were resuspended in 50 mM Tris-HCl/5 mM MgCl2 buffer (pH=7.4) (Sigma, Deisenhofen, Germany; Merck, Darmstadt, Germany) and lysed by a sonication of the cells (three times for 15 seconds, Labsonic U, Fa. Braun, Degersheim, Switzerland, level “high”). The membrane fraction of PDE2A was obtained by a centrifugation at 48 000 g for 1 h, resuspended in buffer and stored at −70° C.
PDE2A activity was determined in a one step procedure in microtiterplates. The reaction mixture of 100 μl contained 50 mM Tris-HCl/5 mM MgCl2 buffer (pH=7.4) (Sigma, Deisenhofen, Germany; Merck, Darmstadt, Germany), 0.5 μM [3H]-cAMP (Amersham, Buckinghamshire, UK), 1000 nM cGMP and the enzyme. Non-specific enzyme activity was tested in the absence of cGMP. The reaction was initiated by addition of the substrate solution and was carried out at 37° C. for 30 minutes. Enzymatic activity then was stopped by addition of 25 μl SPA-beads (Amersham-Pharmacia). One hour later the mixture was measured in a liquid scintillation counter for microtiterplates (Microbeta Trilux). For pipetting of the incubation mixture the robot Biomek (Fa. Beckman) was routinely used.
For determination of IC50 values the Hill-plot, 2-parameter-model, was used.

The next assay deals with T2, PDE10A (Homo sapiens, UniProt Q9Y233).
T2 construct: made in house; host or cells: SF21 insect cells (baculovirus)
In words: Inhibition of recombinant PDE10A (baculovirus/SF21 system), [3H]-cAMP SPA. The format is biochemical. The conditions noted are these: recombinant PDE10A1, cytosolic; 0.1 μM [3H]-cAMP, 37° C., 30 minutes; read-out: PDE10A IC50. Here is the method: Inhibition of Recombinant PDE10A (Baculovirus/SF21 System)
The gene was than inserted into a baculovirus vector, ligated with the baculovirus DNA. The enzyme-protein was expressed in SF21-cells. The enzyme was isolated from these cells by harvesting the cells by an centrifugation at 500 g to collect the cells.
The cells were resuspended in 50 mM Tris-HCl/1 mM EDTA/250 mM Sucrose buffer, pH=7.4 (Sigma, Deisenhofen, Germany; Merck, Darmstadt, Germany) and lysed by sonification of the cells (three times for 15 seconds, Labsonic U, Fa. Braun, Degersheim, Switzerland, level “high”). The cytosolic PDE10A was obtained by a centrifugation at 48,000 g for 1 h in the supernatant and stored at −70° C.
PDE activity was determined in a one step procedure in microtiter plates. The reaction mixture of 100 μl contained 50 mM Tris-HCl/5 mM MgCl2 buffer (pH=7.4, Sigma, Deisenhofen, Germany; Merck, Darmstadt, Germany) 0.1 μM [3H]-cAMP (Amersham, Buckinghamshire, UK) and the enzyme. Non-specific enzyme activity was determined without the enzyme. The reaction was initiated by addition of the substrate solution and was carried out at 37° C. for 30 minutes. Enzymatic activity then was stopped by addition of 25 μl Ysi-SPA-beads (Amersham-Pharmacia). One hour later the mixture was measured in a liquid scintillation counter for microtiter plates (Microbeta Trilux). The Biomek 2000 (Beckman) was used routinely for pipetting of the incubation mixture. […] For determination of IC50 values the Hill-plot, 2-parameter-model, was used.

T1 sequence (O00408 whole entry): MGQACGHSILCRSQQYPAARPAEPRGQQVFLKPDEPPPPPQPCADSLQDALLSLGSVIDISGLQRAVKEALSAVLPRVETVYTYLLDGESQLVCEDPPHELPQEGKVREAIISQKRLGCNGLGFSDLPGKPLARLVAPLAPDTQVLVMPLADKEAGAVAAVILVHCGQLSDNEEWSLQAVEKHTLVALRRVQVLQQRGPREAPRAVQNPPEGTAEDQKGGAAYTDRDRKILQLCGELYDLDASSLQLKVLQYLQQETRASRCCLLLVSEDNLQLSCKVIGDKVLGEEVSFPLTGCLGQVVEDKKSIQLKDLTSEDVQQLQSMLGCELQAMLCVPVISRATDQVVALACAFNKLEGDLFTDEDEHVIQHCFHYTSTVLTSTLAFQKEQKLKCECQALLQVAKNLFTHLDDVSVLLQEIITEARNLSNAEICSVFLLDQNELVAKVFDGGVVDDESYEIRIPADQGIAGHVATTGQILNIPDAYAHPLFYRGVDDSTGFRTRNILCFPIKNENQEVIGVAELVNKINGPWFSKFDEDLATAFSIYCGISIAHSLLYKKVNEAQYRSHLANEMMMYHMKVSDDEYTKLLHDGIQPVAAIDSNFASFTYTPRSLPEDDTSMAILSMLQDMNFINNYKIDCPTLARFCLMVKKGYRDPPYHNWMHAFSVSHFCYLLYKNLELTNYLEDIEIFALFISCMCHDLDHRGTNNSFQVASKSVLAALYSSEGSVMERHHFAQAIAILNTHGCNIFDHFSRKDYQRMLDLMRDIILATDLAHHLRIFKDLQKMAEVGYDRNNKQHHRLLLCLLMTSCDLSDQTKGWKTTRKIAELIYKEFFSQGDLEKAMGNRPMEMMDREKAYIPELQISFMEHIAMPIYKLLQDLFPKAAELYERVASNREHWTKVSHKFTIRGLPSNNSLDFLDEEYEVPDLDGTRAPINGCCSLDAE
T2 sequence (Q9Y233 1-779 isoform Q9Y233-1): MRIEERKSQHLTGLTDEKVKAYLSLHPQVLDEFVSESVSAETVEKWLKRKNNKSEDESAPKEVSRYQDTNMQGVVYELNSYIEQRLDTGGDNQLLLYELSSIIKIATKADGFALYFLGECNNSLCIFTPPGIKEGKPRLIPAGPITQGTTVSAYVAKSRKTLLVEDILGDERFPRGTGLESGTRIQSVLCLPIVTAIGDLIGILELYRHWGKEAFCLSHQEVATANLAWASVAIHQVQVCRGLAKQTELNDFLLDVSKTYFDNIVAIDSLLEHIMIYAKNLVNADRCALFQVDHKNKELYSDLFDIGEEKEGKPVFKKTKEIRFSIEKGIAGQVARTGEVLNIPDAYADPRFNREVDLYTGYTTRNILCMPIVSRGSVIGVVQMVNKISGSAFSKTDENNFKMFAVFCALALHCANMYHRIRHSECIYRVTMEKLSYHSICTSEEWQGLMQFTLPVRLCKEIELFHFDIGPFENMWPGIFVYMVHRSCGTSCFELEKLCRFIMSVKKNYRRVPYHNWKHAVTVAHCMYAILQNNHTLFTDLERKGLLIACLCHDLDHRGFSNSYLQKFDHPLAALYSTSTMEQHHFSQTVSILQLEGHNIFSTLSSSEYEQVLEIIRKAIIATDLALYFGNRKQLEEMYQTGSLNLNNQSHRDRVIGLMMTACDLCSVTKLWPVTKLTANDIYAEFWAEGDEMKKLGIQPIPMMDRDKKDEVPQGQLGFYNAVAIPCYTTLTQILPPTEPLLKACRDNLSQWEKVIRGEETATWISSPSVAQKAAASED

Consider `COc1ccc(Cl)cc1-c1nc(C)c2nnc3c(OC)cc(F)cc3n12` [Example 102, 1-(5-chloro-2-methoxyphenyl)-8-fluoro-6-methoxy-3-methylimidazo[5,1-c][1,2,4]benzotriazine], for which the IC50 on PDE2A was 704 nM; on PDE10A, 14.5 nM.
For `COc1cc(F)cc2c1nnc1c(C)nc(-c3cc(F)ccc3C)n12` [Example 103, 8-fluoro-1-(5-fluoro-2-methylphenyl)-6-methoxy-3-methylimidazo[5,1-c][1,2,4]benzotriazine] the same measures were 435 nM and 4.72 nM.
The matching figures for `COc1cc(F)cc2c1nnc1c(C)nc(-c3cc(Cl)ccc3C)n12` [Example 104, 1-(5-chloro-2-methylphenyl)-8-fluoro-6-methoxy-3-methylimidazo[5,1-c][1,2,4]benzotriazine]: 171 nM and 5.37 nM.
For `COc1cc(F)cc2c1nnc1c(C)nc(-c3cc(Cl)ccc3F)n12` [Example 106, 1-(5-chloro-2-fluorophenyl)-8-fluoro-6-methoxy-3-methylimidazo[5,1-c][1,2,4]benzotriazine] the same measures were 336 nM and 7.91 nM.
On to `COc1cc(F)cc2c1nnc1c(C)nc(-c3cc(C)ccc3Cl)n12` [Example 107, 1-(2-chloro-5-methylphenyl)-8-fluoro-6-methoxy-3-methylimidazo[5,1-c][1,2,4]benzotriazine], for which the results for the IC50 at PDE2A and on PDE10A were 62.5 nM and 2.98 nM, respectively.
Regarding `CCOc1ccc(Cl)c(-c2nc(C)c3nnc4c(OC)cc(F)cc4n23)c1` [Example 108, 1-(2-chloro-5-ethoxyphenyl)-8-fluoro-6-methoxy-3-methylimidazo[5,1-c][1,2,4]benzotriazine], the IC50 at PDE2A was found to be 55 nM; at PDE10A, 8.37 nM.
Turning to `COc1cc(F)cc2c1nnc1c(C)nc(-c3cccnc3)n12` [Example 109, 8-fluoro-6-methoxy-3-methyl-1-pyridin-3-ylimidazo[5,1-c][1,2,4]benzotriazine], the IC50 on PDE2A is > 5000 nM; at PDE10A, 102 nM.
The matching figures for `COc1cc(F)cc2c1nnc1c(C)nc(-c3ccc(F)cc3C)n12` [Example 110, 8-fluoro-1-(4-fluoro-2-methylphenyl)-6-methoxy-3-methylimidazo[5,1-c][1,2,4]benzotriazine]: 609 nM and 8.52 nM.
Consider `COc1cc(F)cc2c1nnc1c(C)nc(-c3ccc(F)cc3Cl)n12` [Example 111, 1-(2-chloro-4-fluorophenyl)-8-fluoro-6-methoxy-3-methylimidazo[5,1-c][1,2,4]benzotriazine], for which the IC50 at PDE2A was determined as 324 nM; at PDE10A it was 3.01 nM.
`COc1cc(F)cc2c1nnc1c(C)nc(-c3ccc(C)cc3Cl)n12` [Example 112, 1-(2-chloro-4-methylphenyl)-8-fluoro-6-methoxy-3-methylimidazo[5,1-c][1,2,4]benzotriazine]: the IC50 on PDE2A turned out to be 636 nM; at PDE10A, 1.88 nM.
For `COc1cc(F)cc2c1nnc1c(C)nc(-c3ccc(C)cc3F)n12` [Example 114, 8-fluoro-1-(2-fluoro-4-methylphenyl)-6-methoxy-3-methylimidazo[5,1-c][1,2,4]benzotriazine] the same measures were 1060 nM and 17.1 nM.
The matching figures for `COc1cc(F)cc2c1nnc1c(C)nc(-c3c(C)noc3C)n12` [Example 115, 1-(3,5-dimethylisoxazol-4-yl)-8-fluoro-6-methoxy-3-methylimidazo[5,1-c][1,2,4]benzotriazine]: > 10000 nM and 67 nM.
As to `COc1cc(F)cc2c1nnc1c(C)nc(-c3c(C)nn(C)c3C)n12` [Example 116, 8-fluoro-6-methoxy-3-methyl-1-(1,3,5-trimethyl-1H-pyrazol-4-yl)imidazo[5,1-c][1,2,4]benzotriazine], the IC50 on PDE2A was 1500 nM; at PDE10A it was 13.1 nM.
Turning to `COc1cc(F)cc2c1nnc1c(C)nc(-c3cccc(F)c3C)n12` [Example 117, 8-fluoro-1-(3-fluoro-2-methylphenyl)-6-methoxy-3-methylimidazo[5,1-c][1,2,4]benzotriazine], the IC50 was found to be 1150 nM at PDE2A and 3.55 nM at PDE10A.
The matching figures for `COc1cc(F)cc2c1nnc1c(C)nc(-c3sccc3C)n12` [Example 119, 8-fluoro-6-methoxy-3-methyl-1-(3-methylthiophen-2-yl)imidazo[5,1-c][1,2,4]benzotriazine]: 269 nM and 1.64 nM.
Turning to `COc1cc(F)cc2c1nnc1c(C)nc(-c3ccc(F)nc3C)n12` [Example 120, 8-fluoro-1-(6-fluoro-2-methylpyridin-3-yl)-6-methoxy-3-methylimidazo[5,1-c][1,2,4]benzotriazine], the values for the IC50 at PDE2A and on PDE10A were > 10000 nM and 53.6 nM, respectively.
For `COc1cc(F)cc2c1nnc1c(C)nc(-c3cnc(F)c(C)c3)n12` [Example 121, 8-fluoro-1-(6-fluoro-5-methylpyridin-3-yl)-6-methoxy-3-methylimidazo[5,1-c][1,2,4]benzotriazine], the IC50 at PDE2A is > 1000 nM; at PDE10A, 133 nM.
For `COc1cncc(-c2nc(C)c3nnc4c(OC)cc(F)cc4n23)c1` [Example 122, 8-fluoro-6-methoxy-1-(5-methoxypyridin-3-yl)-3-methylimidazo[5,1-c][1,2,4]benzotriazine] the same measures were 1620 nM and 39.3 nM.
The matching figures for `COc1cc(F)cc2c1nnc1c(C)nc(-c3cnccc3C)n12` [Example 123, 8-fluoro-6-methoxy-3-methyl-1-(4-methylpyridin-3-yl)imidazo[5,1-c][1,2,4]benzotriazine]: 2380 nM and 25.4 nM.
In the case of `COc1cc(F)cc2c1nnc1c(C)nc(-c3c(C)n[nH]c3C)n12` [Example 124, 1-(3,5-dimethyl-1H-pyrazol-4-yl)-8-fluoro-6-methoxy-3-methylimidazo[5,1-c][1,2,4]benzotriazine], the IC50 amounted to 1430 nM at PDE2A and 13 nM on PDE10A.
As for `COc1cc(F)cc2c1nnc1c(C)nc(-c3cc(OC(F)(F)F)ccc3Cl)n12` [Example 125, 1-[2-chloro-5-(trifluoromethoxy)phenyl]-8-fluoro-6-methoxy-3-methylimidazo[5,1-c][1,2,4]benzotriazine], the IC50 on PDE2A is 117 nM; at PDE10A it was 12.1 nM.
As for `COc1ccc(Cl)c(-c2nc(C)c3nnc4c(OC)cc(F)cc4n23)c1` [Example 126, 1-(2-chloro-5-methoxyphenyl)-8-fluoro-6-methoxy-3-methylimidazo[5,1-c][1,2,4]benzotriazine], the IC50 on PDE2A was 108 nM; on PDE10A it was 2.45 nM.
For `COc1cc(F)cc2c1nnc1c(C)nc(-c3sc(C)nc3C)n12` [Example 127, 1-(2,4-dimethyl-1,3-thiazol-5-yl)-8-fluoro-6-methoxy-3-methylimidazo[5,1-c][1,2,4]benzotriazine] the same measures were 3420 nM and 11.7 nM.
Consider `COc1cc(F)cc2c1nnc1c(C)nc(-c3cc(C(N)=O)ccc3F)n12` [Example 128, 4-fluoro-3-(8-fluoro-6-methoxy-3-methylimidazo[5,1-c][1,2,4]benzotriazin-1-yl)benzamide], for which the figures for the IC50 on PDE2A and on PDE10A were 654 nM and 6.31 nM, respectively.
